Results as given in BindingDB's records for doi:10.1016/s0960-894x(01)00631-x (Novartis Pharma, 2001).

target: Substance-P receptor (Bos taurus); experiment: In vitro binding affinity for Tachykinin receptor 1 of bovine retinal membranes using [3H]Sar9-substance P as radioligand

| IC50 [nM] | SMILES |
| --- | --- |
| 12 | CN(C(=O)c1cc(C(F)(F)F)cc(C(F)(F)F)c1)[C@@H](/C=C/C(=O)NC1CCCCCC1)Cc1ccc(Cl)cc1 [N-[(E)-(R)-1-(4-Chloro-benzyl)-3-cycloheptylcarbamoyl-allyl]-N-methyl-3,5-bis-trifluoromethyl-benzamide] |
| 1 | CN(C(=O)c1cc(C(F)(F)F)cc(C(F)(F)F)c1)[C@@H](/C=C/C(=O)NC1(C(N)=O)CCCCC1)Cc1ccc(Cl)cc1 [N-[(E)-(R)-3-(1-Carbamoyl-cyclohexylcarbamoyl)-1-(4-chloro-benzyl)-allyl]-N-methyl-3,5-bis-trifluoromethyl-benzamide] |
| 4.8 | CN(C(=O)c1cc(C(F)(F)F)cc(C(F)(F)F)c1)[C@@H](/C=C/C(=O)N[C@@H]1CCCCNC1=O)Cc1ccc(Cl)c(Cl)c1 [N-[(R,R)-(E)-(3,4-dichlorobenzyl)-3-(2-oxoazepan-3-yl)carbamoyl]allyl-N-methyl-3,5-bis(trifluoromethyl)benzamide] |

The remaining lines, values behind:

| SMILES | IC50 [nM] |
| --- | --- |
| CN(C(=O)c1cc(C(F)(F)F)cc(C(F)(F)F)c1)N(CCC(=O)N[C@@H]1CCCCNC1=O)Cc1ccc2ccccc2c1 [3-[N'-(3,5-Bis-trifluoromethyl-benzoyl)-N'-methyl-N-naphthalen-2-ylmethyl-hydrazino]-N-((R)-2-oxo-azepan-3-yl)-propionamide] | 6.4 |
| CN(C(=O)c1cc(C(F)(F)F)cc(C(F)(F)F)c1)N(CCC(=O)N[C@@H]1CCCCNC1=O)Cc1ccc(Cl)c(Cl)c1 [3-[N'-(3,5-Bis-trifluoromethyl-benzoyl)-N-(3,4-dichloro-benzyl)-N'-methyl-hydrazino]-N-((R)-2-oxo-azepan-3-yl)-propionamide] | 1.4 |
| CN(C(=O)c1cc(C(F)(F)F)cc(C(F)(F)F)c1)N(CCC(=O)N[C@@H]1CCCCNC1=O)Cc1cc(Br)c(Br)s1 [3-[N'-(3,5-Bis-trifluoromethyl-benzoyl)-N-(4,5-dibromo-thiophen-2-ylmethyl)-N'-methyl-hydrazino]-N-((R)-2-oxo-azepan-3-yl)-propionamide] | 18 |
| CN(C(=O)c1cc(C(F)(F)F)cc(C(F)(F)F)c1)[C@@H](/C=C/C(=O)N[C@@H]1CCCCNC1=O)Cc1cn(C)c2ccccc12 [N-Methyl-N-[(E)-(R)-1-(1-methyl-1H-indol-3-ylmethyl)-3-((R)-2-oxo-azepan-3-ylcarbamoyl)-allyl]-3,5-bis-trifluoromethyl-benzamide] | 0.5 |
| CN(C(=O)c1cc(C(F)(F)F)cc(C(F)(F)F)c1)[C@@H](/C=C/C(=O)N[C@@H]1CCCCNC1=O)Cc1ccc2ccccc2c1 [N-Methyl-N-[(E)-(R)-1-naphthalen-2-ylmethyl-3-((R)-2-oxo-azepan-3-ylcarbamoyl)-allyl]-3,5-bis-trifluoromethyl-benzamide] | 1.1 |
| CN(C(=O)c1cc(C(F)(F)F)cc(C(F)(F)F)c1)[C@@H](/C=C/C(=O)N[C@@H]1CCCCNC1=O)Cc1cc(Br)c(Br)s1 [N-[(E)-(R)-1-(4,5-Dibromo-thiophen-2-ylmethyl)-3-((R)-2-oxo-azepan-3-ylcarbamoyl)-allyl]-N-methyl-3,5-bis-trifluoromethyl-benzamide] | 20 |
